We go through 1 compound from patent publication US20250099405A1, “COMPOSITIONS, METHODS, AND DEVELOPMENT OF ARID4B INHIBITORS” (University of Kentucky Research Foundation, priority 2022, published 2025).

One experiment concerns ERα signaling. Put plainly: qRT-PCR of ERα target genes after E2 treatment. The format is cell-based. To be noted: pre-treatment 5 and 10 μM. The procedure: The mRNA levels of GREB1, PGR, ARID4B, and MYD88 from MCF7 (A) and MCF7 Y537S cells (B) pre-treated with RWR-18 (0, 5 and 10 μM, 1 h) followed by +E2 treatment (10 nM, 4 h) were analyzed by qRT-PCR. Data are means±SEM from three biological replicate. ***, P<0.001. ns, not significant.
Consistent with knockout of ARID4B inhibited E2-induced and constitutive expression of ERα target genes, pre-treatment with RWR-18 (5 and 10 μM) abolished the induction of PGR and GREB1 genes by E2 in MCF7 and ZR75-1 cells (FIG. 18).

Another experiment has as its target T1, Flag-ARID4A (Homo sapiens, UniProt P29374).
T1 construct: expressed in transfected cells
T1 sequence (P29374 1-1257): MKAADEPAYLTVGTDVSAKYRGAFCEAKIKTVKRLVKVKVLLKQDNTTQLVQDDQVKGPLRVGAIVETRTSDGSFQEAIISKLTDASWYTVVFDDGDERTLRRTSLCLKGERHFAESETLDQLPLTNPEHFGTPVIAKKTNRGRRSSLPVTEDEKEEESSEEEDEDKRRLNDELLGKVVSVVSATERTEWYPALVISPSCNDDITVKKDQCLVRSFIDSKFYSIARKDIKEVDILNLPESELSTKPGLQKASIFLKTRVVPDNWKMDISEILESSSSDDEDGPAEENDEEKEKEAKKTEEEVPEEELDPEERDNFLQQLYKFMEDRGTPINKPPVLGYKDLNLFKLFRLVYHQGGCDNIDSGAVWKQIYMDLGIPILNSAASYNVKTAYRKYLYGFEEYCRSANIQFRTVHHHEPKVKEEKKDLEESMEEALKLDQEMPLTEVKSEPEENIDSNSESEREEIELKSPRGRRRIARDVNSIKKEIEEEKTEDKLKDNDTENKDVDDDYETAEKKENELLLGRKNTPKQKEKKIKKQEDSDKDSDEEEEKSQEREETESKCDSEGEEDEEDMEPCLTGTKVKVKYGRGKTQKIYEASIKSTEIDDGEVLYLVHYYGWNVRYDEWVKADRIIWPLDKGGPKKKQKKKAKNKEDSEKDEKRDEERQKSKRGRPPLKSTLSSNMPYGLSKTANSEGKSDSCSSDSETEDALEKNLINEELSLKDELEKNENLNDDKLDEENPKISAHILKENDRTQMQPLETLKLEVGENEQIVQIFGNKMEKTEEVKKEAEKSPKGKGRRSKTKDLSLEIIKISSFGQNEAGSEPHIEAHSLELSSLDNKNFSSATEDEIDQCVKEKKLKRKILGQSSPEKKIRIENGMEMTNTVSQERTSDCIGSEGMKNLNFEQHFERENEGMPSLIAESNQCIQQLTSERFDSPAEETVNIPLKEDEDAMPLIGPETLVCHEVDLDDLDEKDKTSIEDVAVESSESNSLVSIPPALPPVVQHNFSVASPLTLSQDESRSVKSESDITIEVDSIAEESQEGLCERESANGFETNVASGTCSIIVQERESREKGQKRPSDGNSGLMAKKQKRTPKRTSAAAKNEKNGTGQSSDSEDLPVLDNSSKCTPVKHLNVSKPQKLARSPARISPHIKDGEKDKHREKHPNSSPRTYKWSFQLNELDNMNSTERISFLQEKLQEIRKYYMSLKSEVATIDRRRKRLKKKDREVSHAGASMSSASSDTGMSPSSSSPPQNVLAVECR
Put plainly: CETSA in cells expressing Flag-ARID4A. The format is cell-based. The conditions noted are these: 10 μM, 2 h. How it is done: (B-C) show cells expressing HA-ARID4B (C) or HA-ARID4BIC (D) treated or not with ARD150 (10 μM) for 2 h were used for CESTA. […] (D-E) show cells expressing HA-ARID4B (D) or Flag-ARID4A (E) treated or not with RWR-18 (10 μM) for 2 h were used for CESTA. […] Data are means±SEM from three experiments. *P<0.05, **P<0.01, ns, not significant.
Using CETSA (cellular thermal shift assay) to examine whether ARD150 or RWR-18 binds to ARID4B, MCF7 cells treated or not with ARD150 or RWR-18 for 2 h were collected, followed by heating at 46, 49, 52, 55, and 58° C. to denature and precipitate ARID4B protein, cell lysis, removal of cell debris and aggregates by centrifugation, and finally detection of remaining thermostable ARID4B protein by western blot. The ARID4B aggregation temperatures without ARD150 were determined to be 49-52° C., but shifted to 52-55° C. after treatment with ARD150 and even more so with RWR-18 (FIG. 15A-D). To determine whether ARD150 and RWR-18 targets the chromodomain of ARID4B, CESTA was performed using chromodomain deletion mutant (ARID4BAC). HEK-293T cells expressing HA-ARID4B or HA-ARID4BAC were treated or not with ARD150 (10 μM) for 2 h and processed for CESTA.

As for `O=C(COc1ccc(OCc2ccccc2)cc1)NCCCN1CCOCC1` [RWR-18], in the experiment with ERα signaling, the “levels of ARID4B or MYD88 mRNA” value was “not affected”. In the experiment with ERα signaling (MCF7 and ZR75-1 cells), the “induction of PGR and GREB1 genes by E2” value was “abolished”. Besides, at Flag-ARID4A, the “shift of aggregation temperatures of Flag-ARID4A” value is given as “no shift was observed”.
